What all share (assay type): cell-based
Assay [1] has as its system Staphylococcus aureus 100 (ATCC 29213). The assay can be described thus: MIC, broth microdilution, SA 100. Conditions: Staphylococcus aureus, ATCC29213; Table 2; in the presence of 0.002% Polysorbate 80; class symbols; read-out: MIC SA 100. As for the experimental part: (§1) Antibacterial activity in vitro is investigated by broth microdilution method in Meuller-Hinton broth as recommended by NCCLS. All strains tested are clinical isolates either sensitive or resistant to natural glycopeptides. MIC values were determined using the CLSI-recommended broth microdilution procedure (Clinical and Laboratory Standards Institute, Methods for Dilution Antimicrobial Susceptibility Tests for Bacteria That Grow Aerobically; Approved Standard-Seventh Edition.). Automated liquid handlers (Multidrop 384, Labsystems, Helsinki, Finland; Biomek 2000 and Multimek 96, Beckman Coulter, Fullerton Calif.) were used to conduct serial dilutions and liquid transfers. The MIC value for vancomycin is given for comparison. The abbreviations for organisms tested are as follow: SA 100—Staphylococcus aureus 100 (ATCC 29213); SA 757—Staphylococcus aureus 757 (MRSA); SA 2012—Staphylococcus aureus 2012 (VISA); SE 835—Staphylococcus epidermidis 835; SE 831—Staphylococcus epidermidis 831 (MRSE); EFc 101—Enterococcus faecalis 101 (ATCC 29212); EFc 848—Enterococcus faecalis 848 (VRE, Van A); EFcm 800—Enterococcus faecium 800; EFcm 752—Enterococcus faecium 752 (VRE, Van A); SPNE 1195—Streptococcus pneumoniae 1195 (ATCC 49619); SPY 712—Streptococcus pyogenes 712.

Assay [2] concerns Staphylococcus epidermidis 835. In words: MIC, broth microdilution, SE 835. Conditions: Staphylococcus epidermidis, 835; Table 2; in the presence of 0.002% Polysorbate 80; class symbols; read-out: MIC SE 835. The method, then:
as §1

Assay [3] deals with Enterococcus faecalis 101 (ATCC 29212). In words: MIC, broth microdilution, EFc 101. Conditions: Enterococcus faecalis, ATCC29212; Table 2; in the presence of 0.002% Polysorbate 80; class symbols; read-out: MIC E FC 101. As for the experimental part: as §1
A general note: Broth dilution looks for growth in wells or tubes with falling amounts of substance.

The test system of assay [4] is Enterococcus faecium 752 (VRE, Van A). In words: MIC, broth microdilution, EFcm 752. Conditions: Table 2; VRE, Van A; in the presence of 0.002% Polysorbate 80; class symbols; read-out: MIC E FCM 752. As for the experimental part:
as §1

Assay [5] deals with Staphylococcus epidermidis 831 (MRSE). The assay can be described thus: MIC, broth microdilution, SE 831. Conditions: Staphylococcus epidermidis, Table 2, in the presence of 0.002% Polysorbate 80, class symbols, read-out: MIC SE 831. The method, then:
as §1

The subject of assay [6] is Staphylococcus aureus 2012 (VISA). The assay can be described thus: MIC, broth microdilution, SA 2012. Conditions: Table 2, in the presence of 0.002% Polysorbate 80, class symbols, read-out: MIC SA 2012. As for the experimental part:
as §1

The subject of assay [7] is Enterococcus faecium 800. The assay can be described thus: MIC, broth microdilution, EFcm 800. Conditions: Enterococcus faecium, 800; Table 2; in the presence of 0.002% Polysorbate 80; class symbols; read-out: MIC E FCM 800. As for the experimental part:
as §1

Assay [8] relates to Enterococcus faecalis 848 (VRE, Van A). In words: MIC, broth microdilution, EFc 848. Conditions: Table 2; VRE, Van A; in the presence of 0.002% Polysorbate 80; class symbols; read-out: MIC E FC 848. The method, then: as §1
Assay [9] concerns Streptococcus pyogenes 712. In words: MIC, broth microdilution, SPY 712. Conditions: Streptococcus pyogenes, 712; Table 2; in the presence of 0.002% Polysorbate 80; class symbols; read-out: MIC S PYO 712. As for the experimental part: as §1
Assay [10] relates to Staphylococcus aureus 757 (MRSA). The assay can be described thus: MIC, broth microdilution, SA 757. Conditions: Table 2, in the presence of 0.002% Polysorbate 80, class symbols, read-out: MIC SA 757. As for the experimental part: as §1
Assay [11] deals with Streptococcus pneumoniae 1195 (ATCC 49619). The assay can be described thus: MIC, broth microdilution, SPNE 1195. Conditions: Streptococcus pneumoniae, ATCC49619; Table 2; in the presence of 0.002% Polysorbate 80; class symbols; read-out: MIC S PNE 1195. The method, then: as §1

With `CNCCOCc1cc(OCCNC)cc(C(=O)NC(=O)C[C@@H]2NC(=O)[C@H](NC(=O)[C@@H](CC(C)C)NC)[C@H](O)c3ccc(c(Cl)c3)Oc3cc4cc(c3O[C@@H]3O[C@H](CO)[C@@H](O)[C@H](O)[C@H]3O[C@H]3C[C@](C)(N)[C@H](O)[C@H](C)O3)Oc3ccc(cc3Cl)[C@@H](O)[C@@H]3NC(=O)[C@H](NC(=O)[C@@H]4NC2=O)c2ccc(O)c(c2)-c2c(O)cc(O)cc2[C@@H](C(=O)NC2C4CC5CC(C4)CC2C5)NC3=O)c1` (stereo partly shown) [Compound 153], the minimum inhibitory concentration (MIC) in [1] is 0.01 to 0.5 µg/mL; in assay [2] it was 0.01 to 0.5 µg/mL; in assay [3] it was 0.01 to 0.5 µg/mL; in [4], over 16 µg/mL; in assay [5], 0.01 to 0.5 µg/mL; in assay [6] it was 0.5 to 1 µg/mL. For the same compound, the minimal inhibitory concentration (MIC) in [7] is 0.01 to 0.5 µg/mL; in assay [8] it was over 16 µg/mL; in assay [9] it was 0.01 to 0.5 µg/mL; in assay [10] it was 0.01 to 0.5 µg/mL; in [11], 0.01 to 0.5 µg/mL.

As for `CN[C@H](CC(C)C)C(=O)N[C@H]1C(=O)N[C@@H](CC(=O)NC(=O)c2ccc(OCCN)c(OCCN)c2)C(=O)N[C@H]2C(=O)N[C@H]3C(=O)N[C@H](C(=O)N[C@H](C(=O)NC4C5CC6CC(C5)CC4C6)c4cc(O)cc(O)c4-c4cc3ccc4O)[C@H](O)c3ccc(c(Cl)c3)Oc3cc2cc(c3O[C@@H]2O[C@H](CO)[C@@H](O)[C@H](O)[C@H]2O)Oc2ccc(cc2Cl)[C@H]1O` (stereo partly shown) [Compound 159], the MIC in assay [1] was 0.5 to 1 µg/mL; in assay [2], 0.5 to 1 µg/mL; in assay [3] it was 0.5 to 1 µg/mL; in assay [4], 4 to 8 µg/mL; in assay [5], 0.01 to 0.5 µg/mL; in assay [6], 0.5 to 1 µg/mL. In addition, the MIC was 0.01 to 0.5 µg/mL in [7]; over 16 µg/mL in assay [8]; 0.01 to 0.5 µg/mL in assay [9]; 0.5 to 1 µg/mL in [10]; 0.5 to 1 µg/mL in [11].

Turning to `CNCCOc1ccc(C(=O)NC(=O)C[C@@H]2NC(=O)[C@H](NC(=O)[C@@H](CC(C)C)NC)[C@H](O)c3ccc(c(Cl)c3)Oc3cc4cc(c3O[C@@H]3O[C@H](CO)[C@@H](O)[C@H](O)[C@H]3O)Oc3ccc(cc3Cl)[C@@H](O)[C@@H]3NC(=O)[C@H](NC(=O)[C@@H]4NC2=O)c2ccc(O)c(c2)-c2c(O)cc(O)cc2[C@@H](C(=O)NC2C4CC5CC(C4)CC2C5)NC3=O)cc1OCCNC` (stereo partly shown) [Compound 160], the minimal inhibitory concentration (MIC) in assay [1] was in the range of 1 to 2 µg/mL; in assay [2], 0.5 to 1 µg/mL; in assay [3] it was 0.5 to 1 µg/mL; in assay [4], 4 to 8 µg/mL; in assay [5], 0.01 to 0.5 µg/mL; in [6] it was 1 to 2 µg/mL. Also, the minimum inhibitory concentration (MIC) in assay [7] is 0.01 to 0.5 µg/mL; in assay [8], over 16 µg/mL; in assay [9] it was 0.01 to 0.5 µg/mL; in assay [10] it was 1 to 2 µg/mL; in [11], 0.5 to 1 µg/mL.

With `CNCCOc1cc(C(=O)NC(=O)C[C@@H]2NC(=O)[C@H](NC(=O)[C@@H](CC(C)C)NC)[C@H](O)c3ccc(c(Cl)c3)Oc3cc4cc(c3O[C@@H]3O[C@H](CO)[C@@H](O)[C@H](O)[C@H]3O)Oc3ccc(cc3Cl)[C@@H](O)[C@@H]3NC(=O)[C@H](NC(=O)[C@@H]4NC2=O)c2ccc(O)c(c2)-c2c(O)cc(O)cc2[C@@H](C(=O)NC2C4CC5CC(C4)CC2C5)NC3=O)cc(OCCNC)c1OCCNC` (stereo partly shown) [Compound 162], the MIC in assay [1] was in the range of 2 to 4 µg/mL; in assay [2] it was 0.5 to 1 µg/mL; in [3], 1 to 2 µg/mL; in assay [4], 8 to 16 µg/mL; in assay [5], 0.01 to 0.5 µg/mL; in [6], 2 to 4 µg/mL. Further, the minimum inhibitory concentration (MIC) in assay [7] is 0.5 to 1 µg/mL; in assay [8], over 16 µg/mL; in [9] it was 0.01 to 0.5 µg/mL; in assay [10], 1 to 2 µg/mL; in assay [11], 1 to 2 µg/mL.

Regarding `CN[C@H](CC(C)C)C(=O)N[C@H]1C(=O)N[C@@H](CC(=O)NC(=O)c2ccc(OCCCN)c(OCCCN)c2)C(=O)N[C@H]2C(=O)N[C@H]3C(=O)N[C@H](C(=O)N[C@H](C(=O)NC4C5CC6CC(C5)CC4C6)c4cc(O)cc(O)c4-c4cc3ccc4O)[C@H](O)c3ccc(c(Cl)c3)Oc3cc2cc(c3O[C@@H]2O[C@H](CO)[C@@H](O)[C@H](O)[C@H]2O)Oc2ccc(cc2Cl)[C@H]1O` (stereo partly shown) [Compound 163], the minimum inhibitory concentration (MIC) in assay [1] is 1 to 2 µg/mL; in [2] it was 1 to 2 µg/mL; in [3], 1 to 2 µg/mL; in assay [4], 4 to 8 µg/mL; in assay [5], 0.01 to 0.5 µg/mL; in assay [6] it was 1 to 2 µg/mL. For the same compound, the MIC is 0.5 to 1 µg/mL in assay [7]; over 16 µg/mL in [8]; 0.01 to 0.5 µg/mL in assay [9]; 1 to 2 µg/mL in assay [10]; 0.5 to 1 µg/mL in assay [11].

Take `CCNCCOCc1cc(OCCNCC)cc(C(=O)NC(=O)C[C@@H]2NC(=O)[C@H](NC(=O)[C@@H](CC(C)C)NC)[C@H](O)c3ccc(c(Cl)c3)Oc3cc4cc(c3O[C@@H]3O[C@H](CO)[C@@H](O)[C@H](O)[C@H]3O[C@H]3C[C@](C)(N)[C@H](O)[C@H](C)O3)Oc3ccc(cc3Cl)[C@@H](O)[C@@H]3NC(=O)[C@H](NC(=O)[C@@H]4NC2=O)c2ccc(O)c(c2)-c2c(O)cc(O)cc2[C@@H](C(=O)NC2C4CC5CC(C4)CC2C5)NC3=O)c1` (stereo partly shown) [Compound 164]: the minimal inhibitory concentration (MIC) was in the range of 0.01 to 0.5 µg/mL in assay [1]; 0.01 to 0.5 µg/mL in [2]; 0.01 to 0.5 µg/mL in assay [3]; 8 to 16 µg/mL in assay [4]; 0.01 to 0.5 µg/mL in assay [5]; 1 to 2 µg/mL in [6]. Further, the minimal inhibitory concentration (MIC) in [7] was 0.01 to 0.5 µg/mL; in [8], over 16 µg/mL; in [9], 0.01 to 0.5 µg/mL; in assay [10] it was 0.01 to 0.5 µg/mL; in assay [11], 0.01 to 0.5 µg/mL.

On to `CN[C@H](CC(C)C)C(=O)N[C@H]1C(=O)N[C@@H](CC(=O)NC(=O)c2ccc(OCCN)c(OCCN)c2)C(=O)N[C@H]2C(=O)N[C@H]3C(=O)N[C@H](C(=O)N[C@H](C(=O)NC4C5CC6CC(C5)CC4C6)c4cc(O)cc(O)c4-c4cc3ccc4O)[C@H](O)c3ccc(c(Cl)c3)Oc3cc2cc(c3O[C@@H]2O[C@H](CO)[C@@H](O)[C@H](O)[C@H]2O[C@H]2C[C@](C)(N)[C@H](O)[C@H](C)O2)Oc2ccc(cc2Cl)[C@H]1O` (stereo partly shown) [Compound 165], for which the MIC in [1] was in the range of 0.01 to 0.5 µg/mL; in assay [2], 0.5 to 1 µg/mL; in assay [3], 0.01 to 0.5 µg/mL; in assay [4], 2 to 4 µg/mL; in assay [5], 0.01 to 0.5 µg/mL; in assay [6], 1 to 2 µg/mL. Besides, the MIC in [7] was 0.01 to 0.5 µg/mL; in [8], over 16 µg/mL; in [9], 0.01 to 0.5 µg/mL; in assay [10], 0.01 to 0.5 µg/mL; in [11] it was 0.01 to 0.5 µg/mL.

`CN[C@H](CC(C)C)C(=O)N[C@H]1C(=O)N[C@@H](CC(=O)NC(=O)c2ccc(OCCCN)c(OCCCN)c2)C(=O)N[C@H]2C(=O)N[C@H]3C(=O)N[C@H](C(=O)N[C@H](C(=O)NC4C5CC6CC(C5)CC4C6)c4cc(O)cc(O)c4-c4cc3ccc4O)[C@H](O)c3ccc(c(Cl)c3)Oc3cc2cc(c3O[C@@H]2O[C@H](CO)[C@@H](O)[C@H](O)[C@H]2O[C@H]2C[C@](C)(N)[C@H](O)[C@H](C)O2)Oc2ccc(cc2Cl)[C@H]1O` (stereo partly shown) [Compound 166]: the MIC in assay [1] was 0.01 to 0.5 µg/mL; in assay [2], 0.5 to 1 µg/mL; in [3], 0.01 to 0.5 µg/mL; in [4], 2 to 4 µg/mL; in [5], 0.01 to 0.5 µg/mL; in assay [6], 1 to 2 µg/mL. For the same compound, the minimum inhibitory concentration (MIC) in assay [7] is 0.01 to 0.5 µg/mL; in assay [8], over 16 µg/mL; in assay [9] it was 0.01 to 0.5 µg/mL; in assay [10], 0.01 to 0.5 µg/mL; in assay [11], 0.01 to 0.5 µg/mL.

For orientation: MIC means the smallest concentration in the dilution series that meets the test's criterion for growth inhibition.

These data come from US20120252741A1, “NOVEL SEMI-SYNTHETIC GLYCOPEPTIDES AS ANTIBACTERIAL AGENTS” (priority 2008, published 2012).
